Measurements reported in the supplement of paper PMC10307832.

What was measured:
Assay in all cases: relative viability (nuclei count vs DMSO), 5 days (fraction); higher = more cells survive
[1] = compound: CC1=CC=C(C=C1)C(=O)CN2C3=C(CCCC3)SC2=N [Pifithrin_alpha] + Cc1nc(NC(=O)N2CCC[C@H]2C(N)=O)sc1-c1ccnc(C(C)(C)C(F)(F)F)c1 [Alpelisib] (partner 2 µM)
Method in brief: (§1)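 Dosing by pin tool came one day after lung cancer cell lines were seeded in 1536-well plates, using either one drug or a fixed anchor-drug dose plus five library-drug doses (not always all listed) in √10 steps. After 5 days, nuclei were counted on 4× images. Relative viability is treated-well nuclei count divided by vehicle-well nuclei count, and values are medians of duplicate plates.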

Bemcentinib + Pictilisib = compound: Nc1nc(Nc2ccc3c(c2)CC[C@@H](N2CCCC2)CC3)nn1-c1cc2c(nn1)-c1ccccc1CCC2 [Bemcentinib] + CS(=O)(=O)N1CCN(Cc2cc3nc(-c4cccc5[nH]ncc45)nc(N4CCOCC4)c3s2)CC1 [Pictilisib] (partner 1 µM)
Method in brief: as §1

Axitinib + Decitabine = compound: CNC(=O)c1ccccc1Sc1ccc2c(/C=C/c3ccccn3)n[nH]c2c1 [Axitinib] + Nc1ncn([C@H]2C[C@H](O)[C@@H](CO)O2)c(=O)n1 [Decitabine] (partner 2 µM)
Method in brief: as §1

Bemcentinib + Phenformin = compound: Nc1nc(Nc2ccc3c(c2)CC[C@@H](N2CCCC2)CC3)nn1-c1cc2c(nn1)-c1ccccc1CCC2 [Bemcentinib] + N=C(N)NC(=N)NCCc1ccccc1 [Phenformin] (partner 250 µM)
Method in brief: as §1

Row | Cell Line | relative viability ([1]; first compound 1 µM) | relative viability ([1]; first compound 3.162 µM) | relative viability ([1]; first compound 10 µM) | relative viability ([1]; first compound 31.62 µM) | relative viability ([1]; first compound 100 µM) | relative viability (Bemcentinib + Pictilisib; first compound 0.04 µM) | relative viability (Bemcentinib + Pictilisib; first compound 0.1265 µM) | relative viability (Bemcentinib + Pictilisib; first compound 0.4 µM) | relative viability (Bemcentinib + Pictilisib; first compound 1.265 µM) | relative viability (Bemcentinib + Pictilisib; first compound 4 µM) | relative viability (Axitinib + Decitabine; first compound 0.005 µM) | relative viability (Axitinib + Decitabine; first compound 0.01581 µM) | relative viability (Axitinib + Decitabine; first compound 0.05 µM) | relative viability (Axitinib + Decitabine; first compound 0.1581 µM) | relative viability (Axitinib + Decitabine; first compound 0.5 µM) | relative viability (Bemcentinib + Phenformin; first compound 0.04 µM) | relative viability (Bemcentinib + Phenformin; first compound 0.1265 µM) | relative viability (Bemcentinib + Phenformin; first compound 0.4 µM) | relative viability (Bemcentinib + Phenformin; first compound 1.265 µM) | relative viability (Bemcentinib + Phenformin; first compound 4 µM)
1 | NCI-H441 | 0.942 | 0.859 | 0.673 | 0.708 | 0.85 | 0.572 | 0.53 | 0.575 | 0.509 | 0.399 | 0.233 | 0.217 | 0.253 | 0.21 | 0.27 | 0.831 | 0.919 | 1.04 | 1.04 | 0.948
2 | LC-2-ad | 0.898 | 0.799 | 0.791 | 0.56 | 0.682 | 0.456 | 0.536 | 0.553 | 0.426 | 0.424 | 0.829 | 0.776 | 0.855 | 0.804 | 0.779 | 0.535 | 0.601 | 0.592 | 0.602 | 0.588
3 | NCI-H838 | 0.909 | 0.834 | 0.812 | 0.694 | 0.733 | 0.441 | 0.442 | 0.639 | 0.485 | 0.459 | 0.503 | 0.492 | 0.433 | 0.487 | 0.475 | 0.544 | 0.493 | 0.561 | 0.659 | 0.566
4 | NCI-H1944 | 0.866 | 0.762 | 0.72 | – | 0.75 | 0.356 | 0.342 | 0.371 | 0.357 | 0.343 | 0.47 | 0.428 | 0.452 | 0.397 | 0.455 | 0.202 | 0.211 | 0.219 | 0.217 | 0.206
5 | EPLC-272H | – | 0.965 | 0.914 | 0.934 | 1.02 | – | 0.356 | 0.343 | 0.294 | 0.316 | 0.411 | 0.345 | 0.338 | 0.351 | 0.377 | 0.372 | 0.273 | 0.27 | 0.296 | 0.352
6 | NCI-H2170 | 0.799 | 0.821 | 0.756 | 0.537 | 0.744 | 0.267 | 0.324 | 0.352 | 0.259 | 0.311 | 0.483 | 0.439 | 0.411 | 0.48 | 0.488 | 0.402 | 0.429 | 0.456 | 0.389 | 0.435
7 | NCI-H1915 | 0.979 | 1.11 | 1.05 | – | 1.12 | 0.893 | 1.04 | 0.975 | 0.962 | 0.943 | 0.249 | 0.254 | 0.239 | 0.267 | 0.262 | 0.376 | 0.375 | 0.372 | 0.383 | 0.353
8 | NCI-H2087 | 1.05 | 1.04 | 0.862 | 0.671 | 0.884 | 0.813 | 0.973 | 1.03 | 0.813 | 0.89 | 0.289 | 0.254 | 0.22 | 0.186 | 0.293 | 0.435 | 0.481 | 0.52 | 0.492 | 0.487
9 | LCLC-97TM1 | – | 0.226 | 0.224 | – | 0.236 | 0.16 | 0.183 | – | 0.237 | 0.249 | 0.193 | 0.275 | 0.266 | 0.247 | 0.234 | 0.471 | 0.483 | 0.407 | 0.383 | 0.396
10 | NCI-H1734 | 0.75 | 0.699 | 0.638 | 0.576 | 0.682 | 0.461 | 0.487 | 0.486 | 0.48 | 0.45 | 0.518 | 0.492 | 0.524 | 0.491 | 0.521 | 0.406 | 0.384 | 0.42 | 0.434 | 0.372
11 | EKVX | 0.918 | 0.743 | 0.567 | 0.583 | 0.548 | 0.404 | 0.474 | 0.503 | 0.436 | 0.451 | 0.366 | 0.315 | 0.344 | 0.334 | 0.396 | 0.256 | 0.215 | 0.239 | 0.277 | 0.237
12 | 201T | 1.04 | 0.83 | 0.792 | 0.81 | 0.79 | 0.689 | 0.694 | 0.763 | 0.712 | 0.748 | 0.866 | 0.803 | 0.851 | 0.872 | 0.878 | 0.417 | 0.504 | 0.48 | 0.454 | 0.455
13 | NCI-H2085 | 0.907 | 0.972 | 0.849 | 0.706 | 0.808 | 0.44 | 0.468 | 0.418 | 0.459 | 0.451 | 0.578 | 0.54 | 0.614 | 0.551 | 0.561 | 0.694 | 0.776 | 0.688 | 0.572 | 0.697
14 | NCI-H1395 | – | 1.06 | 1.13 | 0.55 | 0.958 | 0.787 | 0.619 | 0.83 | 0.612 | 0.674 | 0.795 | 0.681 | 0.622 | 0.746 | 0.751 | 0.406 | 0.43 | 0.434 | 0.451 | 0.446
15 | NCI-H2405 | – | 0.723 | 0.718 | 0.675 | 0.665 | 0.392 | 0.513 | 0.415 | 0.517 | 0.509 | 0.767 | 0.718 | 0.777 | 0.707 | 0.811 | 0.409 | 0.412 | 0.385 | 0.372 | 0.376
16 | EMC-BAC-2 | 0.719 | 0.776 | 0.738 | 0.56 | 0.822 | 0.544 | 0.561 | 0.529 | 0.548 | 0.569 | 1.03 | 0.966 | 0.971 | 0.965 | 0.945 | 0.515 | 0.516 | 0.556 | 0.507 | 0.514
